Assay results: patent US5556744A, “Methods and compositions for diagnosing and treating certain HIV infected patients” (The Trustees of the University of Pennsylvania, priority 1994, dated 1996)

Tests used:
Parameters in all cases: species or system human
[1] = system: sera samples (antibodies); assay: ELISA peptide-binding of maternal sera, MN strain peptides (Example 7); details: for Correlation of peptide binding with non-transmission (in words): Example 7; for % Bound, Non-Transmitter / No. of Sera Samples Bound, Non-Transmitter / % Bound, Transmitter / No. of Sera Samples Bound, Transmitter: n = 5
Description: This example provides additional sera screens using peptides corresponding to sequences of the MN strain. The sera samples (5 transmitters and 5 non-transmitters) were obtained from the NIH and differ from those screened in the previous studies. Peptide binding was analyzed by ELISA as described in Example 3.

[2] = system: maternal sera (antibodies); assay: ELISA peptide-binding of maternal sera (Example 6)
In short: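 Third-trimester maternal sera, from HIV-1 transmitting and non-transmitting mothers, were tested by ELISA against ~16-residue peptides spanning HIV-1 external and transmembrane glycoproteins. Each serum was run with at least 40 peptides, and values are the percentage of sera binding each peptide.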

[3] = system: maternal HIV+ sera (antibodies); assay: RIA / ELISA binding of maternal HIV+ sera to gp120 and gp41 peptides (Example 3)
In short: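 Peptides were coated at 10 μg/ml in carbonate buffer pH 9.6 and blocked with 1% BSA. Sera at 1:50 and 1:500 were incubated overnight at 4°C and detected with ¹²⁵I anti-human IgG (RIA) or HRP/TMB at OD450 (ELISA). Specific binding was taken as peptide minus no-peptide wells, scored as a ratio to normal human serum.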

In the case of HMLQLTVWGIKQLQAR [MN-15], the “Correlation of peptide binding with non-transmission (in words)” value [1] is reported as “selectively correlate with non-transmission”, the “% Bound, Non-Transmitter” value [1] is reported as 60% and the “No. of Sera Samples Bound, Non-Transmitter” value [1] is reported as 3. For the same substance, the “% Bound, Transmitter” value [1] was 0% and the “No. of Sera Samples Bound, Transmitter” value [1] was 0.
With DTSGRLVHGFLAIIW [MN-8] the “Correlation of peptide binding with non-transmission (in words)” value [1] was “selectively correlate with non-transmission”, the “% Bound, Non-Transmitter” value [1] was 80% and the “No. of Sera Samples Bound, Non-Transmitter” value [1] was 4. The “% Bound, Transmitter” value [1] was 20% and the “No. of Sera Samples Bound, Transmitter” value [1] was 1.
In the case of “MN-13: gp41 peptide, amino acids 619-637, HIV strain MN, SEQ ID NO: 166”, the “% Bound, Non-Transmitter” value [1] is reported as 60%, the “No. of Sera Samples Bound, Non-Transmitter” value [1] is reported as 3 and the “% Bound, Transmitter” value [1] is reported as 0%. For the same substance, the “No. of Sera Samples Bound, Transmitter” value [1] was 0.
“MN-19: gp41 peptide, amino acids 531-540, HIV strain MN, SEQ ID NO: 169 (MGAASVTLTV)” was tested, and the “% Bound, Non-Transmitter” value [1] was 20%, the “No. of Sera Samples Bound, Non-Transmitter” value [1] was 1 and the “% Bound, Transmitter” value [1] was 20%. For the same substance, the “No. of Sera Samples Bound, Transmitter” value [1] was 1.
With “MN-16: gp41 peptide, amino acids 638-650, HIV strain MN, SEQ ID NO: 167” the “% Bound, Non-Transmitter” value [1] was 0%, the “No. of Sera Samples Bound, Non-Transmitter” value [1] was 0 and the “% Bound, Transmitter” value [1] was 0%. For the same substance, the “No. of Sera Samples Bound, Transmitter” value [1] was 0.
With “MN-12: gp41 peptide, amino acids 830-842, HIV strain MN, SEQ ID NO: 197” the “% Bound, Non-Transmitter” value [1] was 0%, the “No. of Sera Samples Bound, Non-Transmitter” value [1] was 0 and the “% Bound, Transmitter” value [1] was 0%. The “No. of Sera Samples Bound, Transmitter” value [1] was 0.
“MN-10: gp41 peptide, amino acids 716-730, HIV strain MN, SEQ ID NO: 158” was tested, and the “% Bound, Non-Transmitter” value [1] was 20%, the “No. of Sera Samples Bound, Non-Transmitter” value [1] was 1 and the “% Bound, Transmitter” value [1] was 20%. For the same substance, the “No. of Sera Samples Bound, Transmitter” value [1] was 1.
For YIKIFIMIVGGLVG [MN-17], the “Correlation of peptide binding with non-transmission (in words)” value [1] was “selectively correlate with non-transmission”, the “% Bound, Non-Transmitter” value [1] was 40% and the “No. of Sera Samples Bound, Non-Transmitter” value [1] was 2. For the same substance, the “% Bound, Transmitter” value [1] was 0% and the “No. of Sera Samples Bound, Transmitter” value [1] was 0.
In the case of HIPTRIRQGLERALL [MN-11], the “Correlation of peptide binding with non-transmission (in words)” value [1] is reported as “selectively correlate with non-transmission”, the “% Bound, Non-Transmitter” value [1] is reported as 60% and the “No. of Sera Samples Bound, Non-Transmitter” value [1] is reported as 3. The “% Bound, Transmitter” value [1] was 0% and the “No. of Sera Samples Bound, Transmitter” value [1] was 0.
In the case of WGIKQLQARILAVER [Peptide 120], the “Number of Non-Transmitters which bound to peptide” value ([2]; Non-Transmitters, N = 12) is reported as 0, the “Percent of Non-Transmitters which bound to peptide” value ([2]; Non-Transmitters, N = 12) is reported as 0% and the “Number of Transmitters which bound to peptide” value ([2]; Transmitters, N = 4) is reported as 0. For the same substance, the “Percent of Transmitters which bound to peptide” value ([2]; Transmitters, N = 4) was 0%, the “Binding of maternal HIV+ serum to peptide (sera/NHS ratio)” value (shortened to “Binding … (sera/NHS ratio)”) ([3]; Serum No. 1, Non-Transmission Group) was “- (specific OD450 or cpm of sera sample binding to peptide divided by the specific OD450 or cpm of NHS sample binding to peptide, which value is less than 2)” and the “Binding … (sera/NHS ratio)” value ([3]; Serum No. 2, Non-Transmission Group) was “- (specific OD450 or cpm of sera sample binding to peptide divided by the specific OD450 or cpm of NHS sample binding to peptide, which value is less than 2)”. The “Binding … (sera/NHS ratio)” value ([3]; Serum No. 3, Non-Transmission Group) was “- (specific OD450 or cpm of sera sample binding to peptide divided by the specific OD450 or cpm of NHS sample binding to peptide, which value is less than 2)”, the “Binding … (sera/NHS ratio)” value ([3]; Serum No. 4, Transmission Group) was “- (specific OD450 or cpm of sera sample binding to peptide divided by the specific OD450 or cpm of NHS sample binding to peptide, which value is less than 2)” and the “Binding … (sera/NHS ratio)” value ([3]; Serum No. 5, Transmission Group) was “- (specific OD450 or cpm of sera sample binding to peptide divided by the specific OD450 or cpm of NHS sample binding to peptide, which value is less than 2)”. The “Binding … (sera/NHS ratio)” value ([3]; Serum No. 6, Non-Transmission Group) was “- (specific OD450 or cpm of sera sample binding to peptide divided by the specific OD450 or cpm of NHS sample binding to peptide, which value is less than 2)”, the “Binding … (sera/NHS ratio)” value ([3]; Serum No. 7, Non-Transmission Group) was “- (specific OD450 or cpm of sera sample binding to peptide divided by the specific OD450 or cpm of NHS sample binding to peptide, which value is less than 2)” and the “Binding … (sera/NHS ratio)” value ([3]; Serum No. 8, Non-Transmission Group) was “- (specific OD450 or cpm of sera sample binding to peptide divided by the specific OD450 or cpm of NHS sample binding to peptide, which value is less than 2)”. For the same substance, the “Binding … (sera/NHS ratio)” value ([3]; Serum No. 9, Non-Transmission Group) was “- (specific OD450 or cpm of sera sample binding to peptide divided by the specific OD450 or cpm of NHS sample binding to peptide, which value is less than 2)”, the “Binding … (sera/NHS ratio)” value ([3]; Serum No. 10, Transmission Group) was “- (specific OD450 or cpm of sera sample binding to peptide divided by the specific OD450 or cpm of NHS sample binding to peptide, which value is less than 2)” and the “Binding … (sera/NHS ratio)” value ([3]; Serum No. 11, Non-Transmission Group) was “- (specific OD450 or cpm of sera sample binding to peptide divided by the specific OD450 or cpm of NHS sample binding to peptide, which value is less than 2)”. For the same substance, the “Binding … (sera/NHS ratio)” value ([3]; Serum No. 12, Non-Transmission Group) was “- (specific OD450 or cpm of sera sample binding to peptide divided by the specific OD450 or cpm of NHS sample binding to peptide, which value is less than 2)”, the “Binding … (sera/NHS ratio)” value ([3]; Serum No. 13, Transmission Group) was “- (specific OD450 or cpm of sera sample binding to peptide divided by the specific OD450 or cpm of NHS sample binding to peptide, which value is less than 2)” and the “Binding … (sera/NHS ratio)” value ([3]; Serum No. 14, Transmission Group) was “- (specific OD450 or cpm of sera sample binding to peptide divided by the specific OD450 or cpm of NHS sample binding to peptide, which value is less than 2)”. For the same substance, the “Binding … (sera/NHS ratio)” value ([3]; Serum No. 15, Transmission Group) was “- (specific OD450 or cpm of sera sample binding to peptide divided by the specific OD450 or cpm of NHS sample binding to peptide, which value is less than 2)”, the “Binding … (sera/NHS ratio)” value ([3]; Serum No. 16, Non-Transmission Group) was “- (specific OD450 or cpm of sera sample binding to peptide divided by the specific OD450 or cpm of NHS sample binding to peptide, which value is less than 2)” and the “Binding … (sera/NHS ratio)” value ([3]; Serum No. 17, Non-Transmission Group) was “- (specific OD450 or cpm of sera sample binding to peptide divided by the specific OD450 or cpm of NHS sample binding to peptide, which value is less than 2)”. The “Binding … (sera/NHS ratio)” value ([3]; Serum No. 18, Non-Transmission Group) was “- (specific OD450 or cpm of sera sample binding to peptide divided by the specific OD450 or cpm of NHS sample binding to peptide, which value is less than 2)”, the “Binding … (sera/NHS ratio)” value ([3]; Serum No. 19, Transmission Group) was “- (specific OD450 or cpm of sera sample binding to peptide divided by the specific OD450 or cpm of NHS sample binding to peptide, which value is less than 2)” and the “Binding … (sera/NHS ratio)” value ([3]; Serum No. 20, Non-Transmission Group) was “- (specific OD450 or cpm of sera sample binding to peptide divided by the specific OD450 or cpm of NHS sample binding to peptide, which value is less than 2)”.
